What was measured:
[1] = system: WT HIV-1 strain NL4-3; test: Cell-based antiviral assay; settings: relative to DRV
[2] = system: MDR HIV-1 variant VSL20; test: Cell-based antiviral assay; settings: relative to corresponding isobutyl analogues 12 and 13
[3] = target: HIV-1 protease I84V variant (Human immunodeficiency virus type 1 group M subtype B, UniProt P12497, I572V/Q495K); type: biochemical

| Compound | fold less active than DRV against wild-type HIV-1 [1] [fold] | fold loss in potency against VSL20 compared to analogues 12 and 13 [2] [fold] | further results |
| --- | --- | --- | --- |
| CCC(CC)CN(C[C@@H](O)[C@H](Cc1ccccc1)NC(=O)O[C@H]1CO[C@H]2OCC[C@H]21)S(=O)(=O)c1ccc([C@@H](O)CO)cc1 [Compound 26, (3R,3aS,6aR)-Hexahydrofuro[2,3-b]furan-3-yl ((2S,3R)-4-((4-((R)-1,2-dihydroxyethyl)-N-(2-ethylbutyl)phenyl)sulfonamido)-3-hydroxy-1-phenylbutan-2-yl)carbamate] | 8 |  |  |
| CC[C@H](C)CN(C[C@@H](O)[C@H](Cc1ccccc1)NC(=O)O[C@H]1CO[C@H]2OCC[C@H]21)S(=O)(=O)c1ccc([C@@H](C)O)cc1 [Compound 15, (3R,3aS,6aR)-Hexahydrofuro[2,3-b]furan-3-yl ((2S,3R)-3-hydroxy-4-((4-((R)-1-hydroxyethyl)-N-((S)-2-methylbutyl)phenyl)sulfonamido)-1-phenylbutan-2-yl)carbamate] |  | 2 |  |
| CC(C)CN(C[C@@H](O)[C@H](Cc1ccccc1)NC(=O)O[C@H]1CO[C@H]2OCC[C@H]21)S(=O)(=O)c1ccc([C@H](O)CO)cc1 [Compound 23, (3R,3aS,6aR)-Hexahydrofuro[2,3-b]furan-3-yl ((2S,3R)-4-((4-((S)-1,2-dihydroxyethyl)-N-isobutylphenyl)sulfonamido)-3-hydroxy-1-phenylbutan-2-yl)carbamate] |  |  | fold less active against the I84V protease than the P2′ epimer 22 ([3]; I84V protease, relative to diastereoisomer 22): about 3 fold |
| CCC(CC)CN(C[C@@H](O)[C@H](Cc1ccccc1)NC(=O)O[C@H]1CO[C@H]2OCC[C@H]21)S(=O)(=O)c1ccc([C@H](O)CO)cc1 [Compound 27, (3R,3aS,6aR)-Hexahydrofuro[2,3-b]furan-3-yl ((2S,3R)-4-((4-((S)-1,2-dihydroxyethyl)-N-(2-ethylbutyl)phenyl)sulfonamido)-3-hydroxy-1-phenylbutan-2-yl)carbamate] | 8 |  | fold less potent against the protease variants tested than the (R)-epimer 26 ([3]; I84V and I50V/A71V variants, relative to 26): 2–3 fold |
| CC[C@H](C)CN(C[C@@H](O)[C@H](Cc1ccccc1)NC(=O)O[C@H]1CO[C@H]2OCC[C@H]21)S(=O)(=O)c1ccc([C@H](C)O)cc1 [Compound 14, (3R,3aS,6aR)-Hexahydrofuro[2,3-b]furan-3-yl ((2S,3R)-3-hydroxy-4-((4-((S)-1-hydroxyethyl)-N-((S)-2-methylbutyl)phenyl)sulfonamido)-1-phenylbutan-2-yl)carbamate] |  | 2 |  |

Source: paper PMC6941148 (Journal of medicinal chemistry, 2019)
